Test system: KM12 cells
Experiment: KM12 cell viability (CellTiter-Glo)
Format: cell-based
Details: Homo sapiens, 72 h; KM12 cell viability, 11-point 3-fold serial dilution, 3 days, CellTiter-Glo; read-out: IC50
Description: KM12 or H358 cells were treated with 1000 nM CPD-053 following an 8-point 3-fold serial dilution for 3 days.
KM12 cells seeded in 96-well plates were treated with heterobifunctional compounds following a 11-point 3-fold serial dilution for 3 days.
KM12, H358, HEL, SU-DHL-1 and other cells were cultured at 37° C. with 5% CO2 in RPMI 1640 Medium supplemented with 10% fetal bovine serum. Cells were authenticated using the short tandem repeat (STR) assays. Mycoplasma test results were negative. Stable cell lines were established by lentivirus transduction, selected and maintained in medium containing 1 μg/mL puromycin (Beyotime Biotechnology).
Cells were seeded at a density of 5000 cells per well in 96-well assay plates and treated with test compounds following a 12-point 2-fold serial dilution or a 8-point 3-fold dilution, or 11-point 3-fold serial dilution. Three days later, cell viability was determined using the CellTiter-Glo assay kit (Promega) according to the manufacturer's instructions. The dose-response curves were determined and IC50 values were calculated using the GraphPad Prism software following a nonlinear regression (least squares fit) method.

Structure (SMILES)	IC50
Cc1ncsc1-c1ccc(CNC(=O)[C@@H]2C[C@@H](O)CN2C(=O)[C@@H](NC(=O)CCOCCC(=O)N2CCC(Nc3cccc(C(=O)Nc4cnn5ccc(N6CCC[C@@H]6c6cc(F)ccc6F)nc45)n3)CC2)C(C)(C)C)cc1 [CPD-465, N-(5-((R)-2-(2,5-difluorophenyl)pyrrolidin-1-yl)pyrazolo[1,5-a]pyrimidin-3-yl)-6-((1-(3-(3-(((S)-1-((2S,4R)-4-hydroxy-2-((4-(4-methylthiazol-5-yl)benzyl)carbamoyl)pyrrolidin-1-yl)-3,3-dimethyl-1-oxobutan-2-yl)amino)-3-oxopropoxy)propanoyl)piperidin-4-yl)amino)picolinamide]	2.02 µM
Cc1ncsc1-c1ccc(CNC(=O)[C@@H]2C[C@@H](O)CN2C(=O)[C@@H](NC(=O)CCOCCOCCC(=O)N2CCC(Nc3cccc(C(=O)Nc4cnn5ccc(N6CCC[C@@H]6c6cc(F)ccc6F)nc45)n3)CC2)C(C)(C)C)cc1 [CPD-466]	0.253 µM
Cc1ncsc1-c1ccc(CNC(=O)[C@@H]2C[C@@H](O)CN2C(=O)[C@@H](NC(=O)CCOCCOCCOCCC(=O)N2CCC(Nc3cccc(C(=O)Nc4cnn5ccc(N6CCC[C@@H]6c6cc(F)ccc6F)nc45)n3)CC2)C(C)(C)C)cc1 [CPD-467, N-(5-((R)-2-(2,5-difluorophenyl)pyrrolidin-1-yl)pyrazolo[1,5-a]pyrimidin-3-yl)-6-((1-((S)-15-((2S,4R)-4-hydroxy-2-((4-(4-methylthiazol-5-yl)benzyl)carbamoyl)pyrrolidine-1-carbonyl)-16,16-dimethyl-13-oxo-4,7,10-trioxa-14-azaheptadecanoyl)piperidin-4-yl)amino)picolinamide]	0.343 µM
Cc1ncsc1-c1ccc(CNC(=O)[C@@H]2C[C@@H](O)CN2C(=O)[C@@H](NC(=O)CCOCCOCCOCCOCCC(=O)N2CCC(Nc3cccc(C(=O)Nc4cnn5ccc(N6CCC[C@@H]6c6cc(F)ccc6F)nc45)n3)CC2)C(C)(C)C)cc1 [CPD-468, N-(5-((R)-2-(2,5-difluorophenyl)pyrrolidin-1-yl)pyrazolo[1,5-a]pyrimidin-3-yl)-6-((1-((S)-18-((2S,4R)-4-hydroxy-2-((4-(4-methylthiazol-5-yl)benzyl)carbamoyl)pyrrolidine-1-carbonyl)-19,19-dimethyl-16-oxo-4,7,10,13-tetraoxa-17-azaicosanoyl)piperidin-4-yl)amino)picolinamide]	> 1 µM
Cc1ncsc1-c1ccc(CNC(=O)[C@@H]2C[C@@H](O)CN2C(=O)[C@@H](NC(=O)CCOCCOCCOCCOCCOCCC(=O)N2CCC(Nc3cccc(C(=O)Nc4cnn5ccc(N6CCC[C@@H]6c6cc(F)ccc6F)nc45)n3)CC2)C(C)(C)C)cc1 [CPD-469, N-(5-((R)-2-(2,5-difluorophenyl)pyrrolidin-1-yl)pyrazolo[1,5-a]pyrimidin-3-yl)-6-((1-((S)-21-((2S,4R)-4-hydroxy-2-((4-(4-methylthiazol-5-yl)benzyl)carbamoyl)pyrrolidine-1-carbonyl)-22,22-dimethyl-19-oxo-4,7,10,13,16-pentaoxa-20-azatricosanoyl)piperidin-4-yl)amino)picolinamide]	> 1 µM
NC(=O)C1CCN(c2cc(CN3CCN(C(=O)CCOCCOCCNc4cccc5c4C(=O)N(C4CCC(=O)NC4=O)C5=O)CC3)ccc2NC(=O)c2coc(N3CCOCC3)n2)CC1 (stereo not shown) [CPD-486, N-(2-(4-carbamoylpiperidin-1-yl)-4-((4-(3-(2-(2-((2-(2,6-dioxopiperidin-3-yl)-1,3-dioxoisoindolin-4-yl)amino)ethoxy)ethoxy)propanoyl)piperazin-1-yl)methyl)phenyl)-2-morpholinooxazole-4-carboxamide]	0.23 µM
NC(=O)C1CCN(c2cc(CN3CCN(C(=O)CCOCCOCCOCCOCCNc4cccc5c4C(=O)N(C4CCC(=O)NC4=O)C5=O)CC3)ccc2NC(=O)c2coc(N3CCOCC3)n2)CC1 (stereo not shown) [CPD-488, N-(2-(4-carbamoylpiperidin-1-yl)-4-((4-(1-((2-(2,6-dioxopiperidin-3-yl)-1,3-dioxoisoindolin-4-yl)amino)-3,6,9,12-tetraoxapentadecan-15-oyl)piperazin-1-yl)methyl)phenyl)-2-morpholinooxazole-4-carboxamide]	0.147 µM
